Where two headings read alike, the source gives them in different places.
Details: ester bond, 2 steps

## C[C@@H](C[C@H](Cc1ccc2c(c1)NC(=O)CCCNC(=O)[C@H](CCCCNC(=O)CCOCCOCCOCCC(=O)NCCOCCOCCC(=O)NCCOCCOCCC(=O)OC(C)(C)C)NC(=O)CCCNC(=O)[C@H](NC(=O)CCN1C(=O)C=CC1=O)[C@H](NC(=O)CCN1C(=O)C=CC1=O)C(=O)NCCCC(=O)O2)NC(=O)OC(C)(C)C)C(=O)OC(C)(C)C
From C[C@@H](C[C@H](Cc1ccc(O)c(NC(=O)CCCNC(=O)[C@H](CCCCNC(=O)CCOCCOCCOCCC(=O)NCCOCCOCCC(=O)NCCOCCOCCC(=O)OC(C)(C)C)NC(=O)CCCNC(=O)[C@@H](NC(=O)CCN2C(=O)C=CC2=O)[C@@H](NC(=O)CCN2C(=O)C=CC2=O)C(=O)NCCCC(=O)O)c1)NC(=O)OC(C)(C)C)C(=O)OC(C)(C)C, 26-membered ring
  ring closure, isolated yield: 39%

## CC(C)[C@@H]1NC(=O)[C@H](C)NC(=O)CCCNC(=O)[C@H](NC(=O)CN2C(=O)C=CC2=O)[C@H](NC(=O)CN2C(=O)C=CC2=O)C(=O)NCCCC(=O)Oc2ccc(C[C@@H](C[C@H](C)C(=O)OC(C)(C)C)NC(=O)OC(C)(C)C)cc2NC1=O
From (2S,4R)-tert-butyl 5-(3-((S)-2-((S)-2-aminopropanamido)-3-methylbutanamido)-4-hydroxyphenyl)-4-((tert-butoxycarbonyl)amino)-2-methylpentanoate + 4,4′-(((2R,3S)-2,3-bis(2-(2,5-dioxo-2,5-dihydro-1H-pyrrol-1-yl)acetamido)succinyl)bis(azanediyl))-dibutanoic acid?, 24-membered ring
  ring closure, isolated yield: 62%

## COCCOCCOCCOCCOCCOCCOCCOCCOCCOCC(=O)NCCCC[C@@H]1NC(=O)[C@@H](NC(=O)CCCN2C(=O)C=CC2=O)[C@@H](NC(=O)CCCN2C(=O)C=CC2=O)C(=O)N[C@@H](CCCCNC(=O)COCCOCCOCCOCCOCCOCCOCCOCCOCCOC)C(=O)NCCCC(=O)Nc2cc(C[C@@H](C[C@H](C)C(=O)OC(C)(C)C)NC(=O)OC(C)(C)C)ccc2OC(=O)CCCNC1=O
From (7S,10R,11S,14S)-10,11-bis(4-(2,5-dioxo-2,5-dihydro-1H-pyrrol-1-yl)butanamido)-6,9,12,15-tetraoxo-7,14-bis(31-oxo-2,5,8,11,14,17,20,23,26,29-decaoxa-32-azahexatriacontan-36-yl)-5,8,13,16-tetraazaicosane-1,20-dioic acid + (2S,4R)-tert-butyl 5-(3-amino-4-hydroxyphenyl)-4-((tert-butoxycarbonyl)amino)-2-methylpentanoate?, 24-membered ring
  ring closure, isolated yield: 52%

## COC(=O)[C@H](Cc1ccc2c(c1)NC(=O)CCCNC(=O)C(NC(=O)CCN1C(=O)C=CC1=O)C(NC(=O)CCN1C(=O)C=CC1=O)C(=O)NCCCC(=O)O2)NC(=O)OC(C)(C)C (stereo partly shown)
From 4,4′-((2,3-bis(2-(2,5-dioxo-2,5-dihydro-1H-pyrrol-1-yl)acetamido)-succinyl)bis(azanediyl))dibutanoic acid + (S)-methyl 3-(3-amino-4-hydroxyphenyl)-2-(tert-butoxycarbonylamino)propanoate?, 18-membered ring
  ring closure, isolated yield: 68%
